# Measurements as given in PubChem BioAssay (NCI).
#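 All cell lines were grown in 96-well plates and treated with compound for 48 hours. GI50 marks 50% less growth. At the TGI there is no net growth.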
# Key:
# Assay in all cases: NCI tumour cell line growth inhibition, 48 h
# [1] = tested on: ACHN renal
# [2] = tested on: HOP-62 NSCLC
# [3] = tested on: MOLT-4 leukemia
# [4] = tested on: BT-549 breast
# [5] = tested on: DU-145 prostate
# [6] = tested on: RPMI-8226 leukemia
# [7] = tested on: MDA-MB-435
# [8] = tested on: HL-60(TB) leukemia
# [9] = tested on: EKVX NSCLC
# [10] = tested on: SR leukemia
# [11] = tested on: SNB-75 CNS
# [12] = tested on: SN12C renal
# [13] = tested on: NCI/ADR-RES ovarian
# [14] = tested on: CAKI-1 renal
# [15] = tested on: UACC-257 melanoma
# [16] = tested on: SF-539 CNS
# [17] = tested on: PC-3 prostate
# [18] = tested on: CCRF-CEM leukemia
# [19] = tested on: IGROV1 ovarian
# [20] = tested on: HT29 colon
# [21] = tested on: U251 CNS
# [22] = tested on: A498 renal
# [23] = tested on: MCF7 breast
# [24] = tested on: M14 melanoma
# [25] = tested on: OVCAR-4 ovarian
# [26] = tested on: UACC-62 melanoma
# [27] = tested on: NCI-H522 lung
# [28] = tested on: RXF 393 renal
# [29] = tested on: SW-620 colon
# [30] = tested on: OVCAR-5 ovarian
# [31] = tested on: OVCAR-8 ovarian
# [32] = tested on: MALME-3M melanoma
# [33] = tested on: NCI-H460 lung
# [34] = tested on: MDA-MB-231 breast
# [35] = tested on: HCT-15 colon
# [36] = tested on: A549 NSCLC
# [37] = tested on: SK-MEL-5 melanoma
# [38] = tested on: NCI-H23 lung
# [39] = tested on: TK-10 renal
# [40] = tested on: HCC-2998 colon
# [41] = tested on: SK-MEL-2 melanoma
# [42] = tested on: 786-0 renal
# [43] = tested on: SF-295 CNS
# [44] = tested on: OVCAR-3 ovarian
# [45] = tested on: SNB-19 CNS
# [46] = tested on: UO-31 renal
# [47] = tested on: HOP-92 NSCLC
# [48] = tested on: COLO 205 colon
# [49] = tested on: T-47D breast
# [50] = tested on: SF-268 CNS
# [51] = tested on: SK-MEL-28 melanoma
# [52] = tested on: HS 578T breast
# [53] = tested on: K-562 leukemia
# [54] = tested on: LOX IMVI melanoma
# [55] = tested on: KM12 colon
# [56] = tested on: HCT-116 colon
# [57] = tested on: NCI-H226 lung
# [58] = tested on: SK-OV-3 ovarian
structure (smiles),measurement,setting,value
CO[C@H]1/C=C/[C@@](C)(O)/C=C/C(=O)O[C@H](C)[C@@H](C)CC/C=C/1C,GI50,[1],18.7 µM
same,TGI,[1],55.9 µM
same,GI50,[2],16.3 µM
same,TGI,[2],59.2 µM
same,GI50,[3],21.2 µM
same,TGI,[3],98.6 µM
same,GI50,[4],19.8 µM
same,TGI,[4],63.6 µM
same,GI50,[5],22.4 µM
same,TGI,[5],71.8 µM
same,GI50,[6],15.5 µM
same,TGI,[6],97.3 µM
same,GI50,[7],23.1 µM
same,TGI,[7],83.1 µM
same,GI50,[8],22.7 µM
same,TGI,[8],54.5 µM
same,GI50,[9],15.7 µM
same,TGI,[9],76.8 µM
same,GI50,[10],15 µM
same,TGI,[10],> 100 µM
same,GI50,[11],17.5 µM
same,TGI,[11],40.4 µM
same,GI50,[12],17.6 µM
same,TGI,[12],59.2 µM
same,GI50,[13],15 µM
same,TGI,[13],40.5 µM
same,GI50,[14],21.1 µM
same,TGI,[14],69.7 µM
same,GI50,[15],26.7 µM
same,TGI,[15],87.3 µM
same,GI50,[16],15.2 µM
same,TGI,[16],31.3 µM
same,GI50,[17],18.2 µM
same,TGI,[17],53.7 µM
same,GI50,[18],10.1 µM
same,TGI,[18],> 100 µM
same,GI50,[19],17.2 µM
same,TGI,[19],62.3 µM
same,GI50,[20],19.4 µM
same,TGI,[20],48.7 µM
same,GI50,[21],14.2 µM
same,TGI,[21],40.6 µM
same,GI50,[22],12 µM
same,TGI,[22],32 µM
same,GI50,[23],16.5 µM
same,TGI,[23],56 µM
same,GI50,[24],15.7 µM
same,TGI,[24],43.3 µM
same,GI50,[25],14.9 µM
same,TGI,[25],76.3 µM
same,GI50,[26],13.8 µM
same,TGI,[26],30 µM
same,GI50,[27],15.2 µM
same,TGI,[27],36.4 µM
same,GI50,[28],11 µM
same,TGI,[28],24.5 µM
same,GI50,[29],15.1 µM
same,TGI,[29],35.7 µM
same,GI50,[30],17.7 µM
same,TGI,[30],39.2 µM
same,GI50,[31],26.9 µM
same,TGI,[31],> 100 µM
same,GI50,[32],13.1 µM
same,TGI,[32],37.3 µM
same,GI50,[33],17.4 µM
same,TGI,[33],48.6 µM
same,GI50,[34],14.5 µM
same,TGI,[34],45.1 µM
same,GI50,[35],7.35 µM
same,TGI,[35],22.5 µM
same,GI50,[36],23 µM
same,TGI,[36],> 100 µM
same,GI50,[37],14 µM
same,TGI,[37],28.4 µM
same,GI50,[38],14.8 µM
same,TGI,[38],32.4 µM
same,GI50,[39],19.7 µM
same,TGI,[39],88.4 µM
same,GI50,[40],15.6 µM
same,TGI,[40],30.7 µM
same,GI50,[41],23.6 µM
same,TGI,[41],63.5 µM
same,GI50,[42],16.8 µM
same,TGI,[42],34.3 µM
same,GI50,[43],16.5 µM
same,TGI,[43],39.8 µM
same,GI50,[44],11.3 µM
same,TGI,[44],29.4 µM
same,GI50,[45],21.9 µM
same,TGI,[45],81.8 µM
same,GI50,[46],8.38 µM
same,TGI,[46],21.1 µM
same,GI50,[47],7.62 µM
same,TGI,[47],26.1 µM
same,GI50,[48],20.6 µM
same,TGI,[48],47.8 µM
same,GI50,[49],14.1 µM
same,TGI,[49],> 100 µM
same,GI50,[50],19.7 µM
same,TGI,[50],> 100 µM
same,GI50,[51],16.9 µM
same,TGI,[51],42.6 µM
same,GI50,[52],23.9 µM
same,TGI,[52],> 100 µM
same,GI50,[53],15.2 µM
same,TGI,[53],> 100 µM
same,GI50,[54],11.3 µM
same,TGI,[54],26 µM
same,GI50,[55],15.8 µM
same,TGI,[55],41.2 µM
same,GI50,[56],12.9 µM
same,TGI,[56],26.2 µM
O=C(c1ccc(Oc2ccccc2)cc1Cl)c1c[nH]c2ncnc(N[C@@H]3CC[C@@H](CO)OC3)c12,GI50,[1],0.26 µM
same,TGI,[1],10.5 µM
same,GI50,[2],0.302 µM
same,TGI,[2],11 µM
same,GI50,[3],1.51 µM
same,TGI,[3],8.99 µM
same,GI50,[4],1.66 µM
same,TGI,[4],4.17 µM
same,GI50,[5],0.688 µM
same,TGI,[5],6.96 µM
same,GI50,[6],1.76 µM
same,TGI,[6],9.53 µM
same,GI50,[7],0.109 µM
same,TGI,[7],10.8 µM
same,GI50,[8],0.2 µM
same,TGI,[8],1.97 µM
same,GI50,[9],0.641 µM
same,TGI,[9],9.42 µM
same,GI50,[10],2.63 µM
same,TGI,[10],19.6 µM
same,GI50,[11],1.11 µM
same,TGI,[11],3.27 µM
same,GI50,[12],0.413 µM
same,TGI,[12],11.4 µM
same,GI50,[13],2.3 µM
same,TGI,[13],10.7 µM
same,GI50,[14],0.398 µM
same,TGI,[14],5.36 µM
same,GI50,[15],0.0389 µM
same,TGI,[15],0.395 µM
same,GI50,[16],1.36 µM
same,TGI,[16],4.85 µM
same,GI50,[17],3.16 µM
same,TGI,[17],13.5 µM
same,GI50,[18],3.21 µM
same,TGI,[18],20.9 µM
same,GI50,[19],0.0842 µM
same,TGI,[19],1.96 µM
same,GI50,[20],0.0434 µM
same,TGI,[20],1.47 µM
same,GI50,[21],1.2 µM
same,TGI,[21],14.1 µM
same,GI50,[22],0.295 µM
same,TGI,[22],1.28 µM
same,GI50,[23],1.47 µM
same,TGI,[23],13 µM
same,GI50,[24],0.0213 µM
same,TGI,[24],0.222 µM
same,GI50,[57],1.47 µM
same,TGI,[57],23.6 µM
same,GI50,[25],5.02 µM
same,TGI,[25],23 µM
same,GI50,[26],0.0209 µM
same,TGI,[26],0.173 µM
same,GI50,[27],0.437 µM
same,TGI,[27],5.09 µM
same,GI50,[28],0.748 µM
same,TGI,[28],2.77 µM
same,GI50,[29],0.397 µM
same,TGI,[29],11.6 µM
same,GI50,[30],0.255 µM
same,TGI,[30],2.75 µM
same,GI50,[31],1.33 µM
same,TGI,[31],11.2 µM
same,GI50,[32],0.0161 µM
same,TGI,[32],0.0745 µM
same,GI50,[33],2.51 µM
same,TGI,[33],10.7 µM
same,GI50,[34],0.32 µM
same,TGI,[34],1.74 µM
same,GI50,[35],0.885 µM
same,TGI,[35],10.8 µM
same,GI50,[36],0.724 µM
same,TGI,[36],9.92 µM
same,GI50,[37],0.771 µM
same,TGI,[37],3.56 µM
same,GI50,[38],0.703 µM
same,TGI,[38],13.7 µM
same,GI50,[39],0.231 µM
same,TGI,[39],1.67 µM
same,GI50,[40],0.199 µM
same,TGI,[40],5.56 µM
same,GI50,[41],0.229 µM
same,TGI,[41],0.876 µM
same,GI50,[42],1.58 µM
same,TGI,[42],9.35 µM
same,GI50,[43],2.45 µM
same,TGI,[43],15.3 µM
same,GI50,[45],1.81 µM
same,TGI,[45],15.3 µM
same,GI50,[46],0.479 µM
same,TGI,[46],5.56 µM
same,GI50,[47],0.0745 µM
same,TGI,[47],0.488 µM
same,GI50,[48],0.0311 µM
same,TGI,[48],0.351 µM
same,GI50,[49],0.908 µM
same,TGI,[49],6.83 µM
same,GI50,[50],1.41 µM
same,TGI,[50],16.3 µM
same,GI50,[51],0.035 µM
same,TGI,[51],0.465 µM
same,GI50,[58],0.351 µM
same,TGI,[58],2.09 µM
same,GI50,[52],1.59 µM
same,TGI,[52],5.01 µM
same,GI50,[53],0.432 µM
same,TGI,[53],> 36.3 µM
same,GI50,[55],0.0377 µM
same,TGI,[55],2.61 µM
same,GI50,[56],0.244 µM
same,TGI,[56],1.42 µM
